Results from patent US8165517B2, “Methods for identifying inhibitors of vascular injury” (The Trustees of the University of Pennsylvania, priority 2005, dated 2012).

Experiments:
[1] = tested on: mouse aortic smooth muscle cell (mASMC); experiment: mASMC proliferation by MTT assay; format: cell-based; settings: PGD2 1 and 5 μM, 24 hr, confluent, quiescent SMC
Procedure: FIG. 6 depicts the effect of PGD2 on mASMC proliferation. Confluent, quiescent SMC were treated with varies concentrations of PGD2. Cell proliferation was determined by MTT assay at 24 hr. Values are mean±S.E.M. (*: P<0.005, by One-way ANOVA and t test, n=6).
The effect of PGD2 on mASMC proliferation was determined by MTT assay.

[2] = tested on: MAP Kinase (MAPK), phosphorylated ERK1/2, in mASMC; experiment: MAPK activation in mASMC by Western analysis of SMC lysate; format: cell-based, mouse
Procedure: FIG. 7 depicts the effect of PGD2 on MAPK activation in mASMC. Confluent, quiescent SMC were treated with 1 μM PGD2 for varies timepoints. Cells were lysed and the lysate was analyzed for phosphorylated ERK1/2 (upper panel) and MARK (lower panel) by Western analysis, using antibodies to phosphotyrosine −ERK1/2 and ERK1/2, respectively.
The effect of PGD2 on activation of MAP Kinase (MAPK) was tested by Western analysis of SMC lysate.

CCCCC[C@H](O)/C=C/[C@H]1C(=O)C[C@H](O)[C@@H]1C/C=C\CCCC(=O)O [PGD2, Prostaglandin D2]
effect on mASMC proliferation [1]: significantly promote mASMC proliferation
level of phosphorylated-MAPK1/2 over time ([2]; 1 μM PGD2, after 15 min): returned to control levels
activation of MAP Kinase (phosphorylated-MAPK1/2, 44 and 42 kDa) ([2]; 1 μM PGD2, as early as 10 min): induction of a phosphorylated-MAPK1/2
